Measurements taken from PMC6659418 (Bioorganic & medicinal chemistry letters, 2017).
Each block holds one molecule with its values, some of them ahead of it.

Tests used:
[1] = predicted hepatic clearance from microsomal intrinsic clearance, rat; format: in vitro ADME; details: based on microsomal CLint
[2] = metabolite identification in human hepatic microsomes; format: in vitro ADME
plasma protein binding = format: in vitro ADME
hM4 = biological target: T1, hM4 (Homo sapiens, UniProt P08173); test: calcium mobilization assay, hM4/Gqi5 CHO cells, ACh EC80; format: cell-based; details: for hM4 % ACh Min ±SEM: presence of ACh EC80
T1 sequence (P08173 1-479): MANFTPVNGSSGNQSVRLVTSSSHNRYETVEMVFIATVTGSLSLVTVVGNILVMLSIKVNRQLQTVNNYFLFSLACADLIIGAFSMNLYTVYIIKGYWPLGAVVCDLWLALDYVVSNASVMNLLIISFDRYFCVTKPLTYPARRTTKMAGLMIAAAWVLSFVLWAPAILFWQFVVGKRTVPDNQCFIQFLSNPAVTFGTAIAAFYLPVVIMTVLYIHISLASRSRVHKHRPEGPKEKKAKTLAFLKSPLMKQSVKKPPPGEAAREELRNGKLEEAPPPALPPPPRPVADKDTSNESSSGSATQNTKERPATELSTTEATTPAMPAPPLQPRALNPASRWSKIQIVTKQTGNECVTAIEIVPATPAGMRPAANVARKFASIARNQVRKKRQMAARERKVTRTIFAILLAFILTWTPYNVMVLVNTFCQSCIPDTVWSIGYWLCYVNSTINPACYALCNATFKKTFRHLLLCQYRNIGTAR

[3] = metabolite identification in rat hepatic microsomes; format: in vitro ADME
[4] = predicted hepatic clearance from microsomal intrinsic clearance, human; format: in vitro ADME; details: based on microsomal CLint
hM3 = hM3 (Homo sapiens, UniProt P20309); test: calcium mobilization assay, hM3 CHO cells, ACh EC80; format: cell-based
hM1 = biological target: T2, hM1 (Homo sapiens, UniProt P11229); test: calcium mobilization assay, hM1 CHO cells, ACh EC80; format: cell-based
T2 sequence (P11229 1-460): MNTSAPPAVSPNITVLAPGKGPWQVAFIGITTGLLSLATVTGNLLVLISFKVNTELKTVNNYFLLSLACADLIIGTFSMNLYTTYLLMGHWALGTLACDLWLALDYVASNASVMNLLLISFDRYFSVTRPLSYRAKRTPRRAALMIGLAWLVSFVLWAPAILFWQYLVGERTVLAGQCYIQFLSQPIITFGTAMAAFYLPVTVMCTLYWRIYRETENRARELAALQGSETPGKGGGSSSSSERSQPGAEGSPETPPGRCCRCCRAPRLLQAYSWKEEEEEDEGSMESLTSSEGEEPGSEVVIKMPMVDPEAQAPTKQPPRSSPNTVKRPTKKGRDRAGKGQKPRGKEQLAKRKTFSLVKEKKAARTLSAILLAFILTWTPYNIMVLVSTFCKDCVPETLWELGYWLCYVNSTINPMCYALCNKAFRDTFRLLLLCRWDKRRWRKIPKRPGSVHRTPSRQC

hM2 = biological target: T3, hM2 (Homo sapiens, UniProt P08172); test: calcium mobilization assay, hM2/Gqi5 CHO cells, ACh EC80; format: cell-based
T3 sequence (P08172 1-466): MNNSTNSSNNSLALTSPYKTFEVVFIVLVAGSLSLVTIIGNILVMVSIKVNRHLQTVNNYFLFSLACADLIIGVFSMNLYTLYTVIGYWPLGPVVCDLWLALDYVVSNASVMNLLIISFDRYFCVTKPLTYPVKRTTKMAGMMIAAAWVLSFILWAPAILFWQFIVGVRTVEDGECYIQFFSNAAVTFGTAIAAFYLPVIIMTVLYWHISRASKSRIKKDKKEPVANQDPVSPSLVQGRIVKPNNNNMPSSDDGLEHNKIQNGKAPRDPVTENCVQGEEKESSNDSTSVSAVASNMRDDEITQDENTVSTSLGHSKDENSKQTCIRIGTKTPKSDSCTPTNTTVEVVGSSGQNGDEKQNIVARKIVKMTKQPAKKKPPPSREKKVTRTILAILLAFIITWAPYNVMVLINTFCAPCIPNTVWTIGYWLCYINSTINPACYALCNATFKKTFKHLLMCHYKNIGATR

rM4 = biological target: T4, rM4 (Rattus norvegicus, UniProt P08485); test: activity at rat mAChRs, rM4; format: cell-based
T4 sequence (P08485 1-478): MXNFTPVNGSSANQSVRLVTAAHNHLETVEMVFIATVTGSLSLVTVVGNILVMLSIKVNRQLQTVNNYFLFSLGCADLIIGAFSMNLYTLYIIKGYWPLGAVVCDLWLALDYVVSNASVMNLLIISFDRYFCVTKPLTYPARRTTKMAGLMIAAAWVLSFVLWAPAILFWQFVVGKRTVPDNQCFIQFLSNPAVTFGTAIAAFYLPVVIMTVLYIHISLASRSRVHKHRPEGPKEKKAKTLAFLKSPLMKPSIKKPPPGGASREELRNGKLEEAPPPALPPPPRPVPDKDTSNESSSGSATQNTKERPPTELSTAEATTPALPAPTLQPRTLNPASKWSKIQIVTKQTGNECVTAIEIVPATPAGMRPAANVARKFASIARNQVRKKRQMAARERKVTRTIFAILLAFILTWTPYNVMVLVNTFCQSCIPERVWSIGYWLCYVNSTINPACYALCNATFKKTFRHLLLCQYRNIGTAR

hM5 = biological target: T5, hM5 (Homo sapiens, UniProt P08912); test: calcium mobilization assay, hM5 CHO cells, ACh EC80; format: cell-based
T5 sequence (P08912 1-532): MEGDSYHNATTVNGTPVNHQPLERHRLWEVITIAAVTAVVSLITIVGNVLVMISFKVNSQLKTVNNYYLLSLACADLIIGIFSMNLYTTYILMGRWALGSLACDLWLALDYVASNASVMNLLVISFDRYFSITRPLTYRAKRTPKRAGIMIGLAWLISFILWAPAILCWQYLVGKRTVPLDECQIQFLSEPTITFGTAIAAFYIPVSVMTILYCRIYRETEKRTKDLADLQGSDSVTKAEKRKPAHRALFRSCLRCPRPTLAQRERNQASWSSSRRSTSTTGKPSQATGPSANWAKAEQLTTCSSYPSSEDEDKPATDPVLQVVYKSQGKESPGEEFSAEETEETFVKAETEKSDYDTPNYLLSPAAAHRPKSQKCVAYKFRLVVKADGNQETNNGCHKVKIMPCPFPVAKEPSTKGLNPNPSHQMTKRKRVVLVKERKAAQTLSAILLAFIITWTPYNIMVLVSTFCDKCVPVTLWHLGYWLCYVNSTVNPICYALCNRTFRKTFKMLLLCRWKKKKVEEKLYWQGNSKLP

Sequence of hM3 (P20309 whole entry): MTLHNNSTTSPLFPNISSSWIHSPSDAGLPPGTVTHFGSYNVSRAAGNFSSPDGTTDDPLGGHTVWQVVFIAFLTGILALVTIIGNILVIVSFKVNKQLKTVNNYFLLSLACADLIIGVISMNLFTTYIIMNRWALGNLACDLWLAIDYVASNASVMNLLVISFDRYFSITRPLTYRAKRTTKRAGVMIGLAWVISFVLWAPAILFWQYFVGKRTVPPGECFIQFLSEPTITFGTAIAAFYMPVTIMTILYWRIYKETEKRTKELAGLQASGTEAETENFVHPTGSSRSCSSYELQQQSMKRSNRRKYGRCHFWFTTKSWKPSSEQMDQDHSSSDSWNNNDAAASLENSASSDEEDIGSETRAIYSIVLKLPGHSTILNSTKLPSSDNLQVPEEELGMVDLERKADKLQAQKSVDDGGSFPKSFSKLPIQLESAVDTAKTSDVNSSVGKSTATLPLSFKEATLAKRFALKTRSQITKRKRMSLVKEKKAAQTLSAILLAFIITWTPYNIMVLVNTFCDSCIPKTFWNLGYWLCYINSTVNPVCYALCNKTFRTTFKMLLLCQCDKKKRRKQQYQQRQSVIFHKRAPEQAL

Structure (SMILES): C[C@H]1CCCCN1c1ccc(N2CCN(S(=O)(=O)c3ccccc3Cl)CC2)nn1 [Compound 6a]
predicted hepatic clearance (CLhep), rat [1]: > 60 mL/min/kg
number of NADPH-dependent metabolites formed, human microsomes [2]: 8
parent remaining, human microsomes [2]: parent remained the major species
NADPH-independent metabolism, human microsomes ([2]; presence and absence of NADPH): no NADPH-independent metabolism
plasma protein binding (plasma protein binding): high plasma protein binding
M4-preferring functional selectivity over other mAChRs (hM4; hM4 versus hM1, hM2, hM3, hM5): 2.7- to 16 fold
parent remaining, rat microsomes [3]: very little parent remained
major peak (UV and extracted ion chromatograms), rat microsomes ([3]; oxidative metabolism of the piperidine moiety): metabolite F
NADPH-independent metabolism, rat microsomes ([3]; presence and absence of NADPH): no NADPH-independent metabolism
predicted hepatic clearance (CLhep), human [4]: > 20 mL/min/kg

Structure (SMILES): C[C@H]1CCCCN1c1ccc(N2CCN(S(=O)(=O)c3ccccc3)CC2)nn1 [Compound 9c]
hM4 activity (hM4): weak

Structure (SMILES): COc1ccccc1S(=O)(=O)N1CCN(c2ccc(N3CCCC[C@@H]3C)nn2)CC1 [Compound 9d]
hM4 activity (hM4): weak

Structure (SMILES): C[C@H]1CCCCN1c1ccc(N2CCN(S(=O)(=O)c3ccccc3C(F)(F)F)CC2)nn1 [Compound 9e]
hM4 activity (hM4): essentially equipotent to 6a

Structure (SMILES): C[C@H]1CCCCN1c1ccc(N2CCN(S(=O)(=O)c3ccc4c(c3)OCO4)CC2)nn1 [Compound 9i]
fold more potent at hM4 than 3,4-dimethoxy analog 9j (hM4; 9i versus 9j): 10 fold

Continued, values first:

hM4 % ACh Min ±SEM (hM4): 56 % ACh Min
Structure (SMILES): C[C@H]1COCCN1c1ccc(N2CCN(S(=O)(=O)c3ccccc3Cl)CC2)nn1 [Compound 14a]

hM4 % ACh Min ±SEM (hM4): 63 % ACh Min
Structure (SMILES): C[C@H]1COCCN1c1ccc(N2CCN(S(=O)(=O)c3ccc4c(c3)OCO4)CC2)nn1 [Compound 14b]

hM4 % ACh Min ±SEM (hM4): 66 % ACh Min
Structure (SMILES): Cc1noc(C)c1S(=O)(=O)N1CCN(c2ccc(N3CCOC[C@@H]3C)nn2)CC1 [Compound 14c]

fold loss in hM4 inhibitory activity relative to 6a (hM4): 5- to 6 fold
Structure (SMILES): O=S(=O)(c1ccccc1Cl)N1CCN(c2ccc(N3CCCCC3)nn2)CC1 [Compound 14g]

predicted hepatic clearance (CLhep), rat [1]: 66.6 mL/min/kg
mode of antagonism at human M3 (hM3): weak, partial antagonism
mode of antagonism at human M1 (hM1): potent full antagonist
mode of antagonism at human M2 (hM2): potent full antagonist
rM4 % ACh Min (rM4): 32±1 % ACh Min
IC50 (rM4; rM4 pIC50): 372 nM
mode of antagonism at human M5 (hM5): weak, partial antagonism
predicted hepatic clearance (CLhep), human [4]: 20 mL/min/kg
Structure (SMILES): Cc1noc(C)c1S(=O)(=O)N1CCN(c2ccc(N3CCCC(C)(C)C3)nn2)CC1 [Compound 14n, 4-[4-[6-(3,3-dimethyl-1-piperidyl)pyridazin-3-yl]piperazin-1-yl]sulfonyl-3,5-dimethyl-isoxazole]

hM4 % ACh Min ±SEM (hM4): 51 % ACh Min
Structure (SMILES): O=C1CCCCN1c1ccc(N2CCN(S(=O)(=O)c3ccccc3Cl)CC2)nn1 [Compound 14o]
